From patent US8778889B2, “Antimicrobial decapeptide oral hygiene treatment” (The United States of America as represented by the …, priority 2003, dated 2014)
Ends that are not written are not given here.

Columns and labels:
[1] = tested on: MRSA WRAMC #12; type: cell-based, Staphylococcus aureus
Source text: (§1) As shown in the table below, many drug-resistant pathogens including multidrug-resistant Acinetobacter baumannii (clinical isolates) were susceptible to the bactericidal activity of the newly developed antimicrobial peptides. […] This is shown by their lower MIC and MBC against a number of antibiotic-resistant bacteria including methicillin-resistant Staphylococcus aureus, vancomycin-resistant Enterococci, and multidrug-resistant Acinetobacter baumannii. Many of these resistant strains are involved in nosocomial infections, which affect the immunocompromised and the elderly individuals with weakened defenses. The tests were done in a broth microdilution assay as described in our earlier publication (Concannon et al., 2003).

[2] = tested on: MRSA VVRAMC #10; type: cell-based, Staphylococcus aureus
Source text: as §1

[3] = tested on: MRSA WRAMC #9; type: cell-based, Staphylococcus aureus
Source text: as §1

[4] = tested on: MRSA ATCC #33591; type: cell-based, Staphylococcus aureus
Source text: as §1

[5] = tested on: MRSA VVRAMC #1; type: cell-based, Staphylococcus aureus
Source text: as §1

[6] = tested on: MRSA ATCC #43300; type: cell-based, Staphylococcus aureus
Source text: as §1

[7] = Interaction (adsorption) with hydroxyapatite discs in artificial saliva; type: physicochemical; settings: KSL 0.5 mg/ml, 8 untreated HA discs, 37° C.
Protocol: Affinity of KSL to tooth-like materials was assessed by allowing the KSL to interact with HA discs (Size: 0.38″ diameter×0.06-0.08″ thick) in artificial saliva at 37° C. To simulate the tooth surface, the HA discs were pretreated in filtered human saliva for 2 hours (4 HA discs/4 mL of human saliva). Whole human saliva was collected from three healthy male donors in the morning prior to breakfast. After collection, the saliva was immediately centrifuged at 12,000 rpm for 20 min and the supernatant was filter through a 0.45 μm membrane filter. The HA discs, after conditioning with human saliva, were rinsed with artificial saliva and added to 4 ml of KSL solutions (0.5 mg/ml in artificial saliva) at 37° C. As a control, untreated HA discs were directly added to KSL solutions at 37° C. The sample vials were mounted on a rotary wheel with vertical rotation at a speed of 18 cycles/min. Samples were removed at predetermined times, centrifuged and the supernatants were analyzed by RP-HPLC.

[8] = tested on: oral biofilms formed by salivary bacteria on saliva-conditioned Ge surfaces; assay: Dual flow cell oral biofilm development (DIC microscopy); type: cell-based, human salivary bacteria
Source text: The dual flow cell system used in this study was modified from the chemostat flow cells of Herles et al. (Herles et al., 1994) and constructed according to our design and specifications by BioSurface Technologies (Bozeman, Mont.) (FIG. 1). The flow cell consisted of two compartments, each containing a polycarbonate flow chamber with three recesses to hold the Ge disks (10 mm in diameter and 1.8 mm in thickness) upon which biofilms were formed. Ge disks provided reflective surfaces that allowed the visualization of unstained biofilms using differential interference contrast (DIC) microscopy.
To form biofilms, Ge disks (Mindrum, Rancho Cucamonga, Calif.) in the dual flow cell were conditioned for one hour with sterile 50% human whole saliva. Isolated salivary bacteria, adjusted to approximately 1.0×10^7 cells/ml in 50% saliva (total, 1.5 ml), were injected into the flow chambers. After two hours of initial adherence of bacteria onto disk surfaces, the flow of culture medium (20% Todd-Hewitt broth) was started at a rate of 0.2 ml/min (Foster et al., 2004). The flow rate employed generated a shear rate of approximately 9.65 s^−1 on the substrate surface, and is compatible with the fluid flow in the oral cavity (Bakker et al., 2003).
To evaluate the effects of KSL in controlling the development and maturation of oral biofilms, surface adhered cells (after initial colonization) were perfused continuously with KSL-free or KSL-containing media (KSL at 10 or 50 μg/ml). Alternatively, biofilms at different stages of maturation (i.e., 4, or 6 h after inoculation) were pulse-treated using an injection pump at 0.2 ml/min with 50 μg/ml KSL in 20% THB or the control medium for 30 min at 2 hr intervals. Direct comparison of the effects of antimicrobials on the growth of biofilms between treated versus untreated was made in real-time by DIC microscopy.

[9] = tested on: A. baumannii WRAMC #11; type: cell-based, Acinetobacter baumannii
Source text: as §1

[10] = tested on: A. baumannii WRAMC #15; type: cell-based, Acinetobacter baumannii
Source text: as §1

[11] = tested on: A. baumannii WRAMC #2; type: cell-based, Acinetobacter baumannii
Source text: as §1

[12] = tested on: A. baumannii WRAMC #18; type: cell-based, Acinetobacter baumannii
Source text: as §1

[13] = tested on: A. baumannii ATCC #19606; type: cell-based, Acinetobacter baumannii
Source text: as §1

[14] = tested on: A. baumannii WRAMC #14; type: cell-based, Acinetobacter baumannii
Source text: as §1

[15] = tested on: A. baumannii WRAMC #19; type: cell-based, Acinetobacter baumannii
Source text: as §1

[16] = tested on: A. baumannii WRAMC #8; type: cell-based, Acinetobacter baumannii
Source text: as §1

[17] = tested on: A. baumannii WRAMC #5; type: cell-based, Acinetobacter baumannii
Source text: as §1

[18] = tested on: A. baumannii WRAMC #4; type: cell-based, Acinetobacter baumannii
Source text: as §1

[19] = tested on: A. baumannii WRAMC #17; type: cell-based, Acinetobacter baumannii
Source text: as §1

[20] = tested on: A. baumannii WRAMC #13; type: cell-based, Acinetobacter baumannii
Source text: as §1

[21] = tested on: A. baumannii WRAMC #16; type: cell-based, Acinetobacter baumannii
Source text: as §1

Substance: KKVVFKVKFK-NH2 [KSL, Lys-Lys-Val-Val-Phe-Lys-Val-Lys-Phe-Lys-NH2]
- MBC [1]: >200 µg/mL
- MIC [1]: >200 µg/mL
- MBC [2]: >200 µg/mL
- MIC [2]: >200 µg/mL
- MBC [3]: >200 µg/mL
- MIC [3]: >200 µg/mL
- MBC [4]: >200 µg/mL
- MIC [4]: 200 µg/mL
- MBC [5]: >200 µg/mL
- MIC [5]: >200 µg/mL
- MBC [6]: 200 µg/mL
- MIC [6]: 100 µg/mL
- KSL adsorbed to HA discs [7]: approximately 20%
- time to adsorption equilibrium [7]: ≤ 5 min
- effect on oral biofilm development ([8]; continuous perfusion, KSL at 10 μg/ml): partially effective in inhibiting biofilm formation
- effect on oral biofilm development ([8]; continuous perfusion, KSL at 50 μg/ml): disrupted biofilm development
- effect on oral biofilm development ([8]; pulsed treatment (30 min every 2 h, 50 μg/ml) starting 4 h after inoculation): inhibited biofilm formation
- effect on oral biofilm development ([8]; pulsed treatment (30 min every 2 h, 50 μg/ml) starting 6 h after inoculation): failed to inhibit the development of biofilm structures
- MBC [9]: 200 µg/mL
- MIC [9]: 100 µg/mL
- MBC [10]: >200 µg/mL
- MIC [10]: 100 µg/mL
- MBC [11]: 100 µg/mL
- MBC [12]: 200 µg/mL
- MIC [12]: 50 µg/mL
- MBC [13]: 200 µg/mL
- MIC [13]: 100 µg/mL
- MBC [14]: 100 µg/mL
- MBC [15]: 50 µg/mL
- MBC [16]: 100 µg/mL
- MBC [17]: 50 µg/mL
- MBC [18]: 25 µg/mL
- MIC [18]: 12.5 µg/mL
- MBC [19]: 100 µg/mL
- MBC [20]: 200 µg/mL
- MIC [20]: 50 µg/mL
- MBC [21]: 25 µg/mL
